Reference: patent publication US9320271B2, “Microbial composition” (Rohm and Haas Company, priority 2011, dated 2016)
“And” between values parts separate entries of the source, which are not always exact repeats. Identical values can stand only once.

Assays:
Type in all cases: cell-based
[1] = test system: Escherichia coli (10536 strain); experiment: 15 second contact kill test versus E. coli (actives in water, mean bacterial survival NMBS); settings: for MBC (minimum biocidal concentration of antimicrobial components): Table 27; for NMBS: no alcohol, 15 s
Description: 15 Second Contact Kill Test Versus E. Coli and S. Aureus
Antimicrobial efficacy is tested against a representative pathogenic bacterial organism, Gram negative Escherichia coli. Concentrations of actives are expressed in terms of the percentage weight/volume (% w/v) throughout Example 1.
An overnight culture of Escherichia coli (10536 strain) was prepared in 50 ml total volume of TSB broth, grown for ca. 18 hrs at 37° C. and shaken at 150 rpm. 1 ml of this overnight E. coli culture was transferred to 50 ml of fresh TSB broth and incubated at 37° C. at 150 rpm for ca. 4 hours. This culture was separated into equal volumes and centrifuged at 4000 rpm for 15 minutes, washed with sterile saline (0.85% NaCl), centrifuged once more and re-suspended in saline to give a final concentration of 0.8 OD620 equivalent to about 10^8 cells per milliliter for this particular organism. Here, OD620 indicates the absorbance of a sample in a cuvette of 1.0 cm path length at a wavelength of 620 nm. This bacterial stock was used for assaying against antimicrobial actives (in triplicate). S. Aureus Bacterial Stock
The following assay describes the testing of 8 materials using 6 dilutions across half of a 96-well micro titre plate (MTP). Using this approach it is possible to assay 16 actives (without replicates) with one full dilution plate, replicating this set up in two halves of the plate columns, 1-6 and 7-12. 1M solutions of the test actives were prepared in dimethylsulphoxide (DMSO). […] Aliquots (270 μl) of the materials at 1.11 times the final concentration were dispensed into the wells of the MTP along one column (A1-H1). This MTP was labelled as the “Screening plate”. In another MTP, labelled as the “Dilution plate”, […] of D/E neutralising solution from DIFCO Composition was added to column 1. The composition of the neutralising solution was as follows: pancreatic digest of casein, 5.0 g/L; Yeast Extract, 2.5 g/L; Dextrose, 10 g/L, sodium thioglycollate, 1.0 g/L, sodium thiosulphate, 6.0 g/L; sodium bisulphite, 2.5 g/L; Polysorbate 80, 5.0 g/L; lecithin 7.0 g/L; bromocresol purple, 0.02 g/L with a pH in the range 7.6±0.2. 270 μl of tryptone diluent solution was added to all the remaining wells of the Dilution MTP (columns 2-6). Bacterial stock (30 μl) was then added to the prepared 270 μl of the solution of actives in the Screening Plate and mixed, using a multichannel pipette with 8 tips to aspirate and dispense the same volume of bacterial stock in parallel to 8 wells in rows A-H. After a contact time of 15 seconds, the mixtures were quenched by transferring 30 μl volumes of the mixtures into the 270 μl D/E neutralising solution in the prepared dilution plate, using aspiration to mix. After exactly 5 minutes in the D/E neutralising solution, 30 μl volumes were transferred from column 1 to column 2 of the Dilution MTP and mixed, before transferring further 30 μl volumes from column 2 into column 3. This process was repeated serially diluting the bacteria across the plate to column 6. 30 μl volumes from each well in the Dilution MTP were transferred onto pre-labelled segment of Tryptone Soya Agar (TSA) plates starting from the lowest bacterial concentration (highest dilution, column 6) to the highest bacterial concentration (column 1). The TSA plates were allowed to stand for ca. 2 hours so that the 30 μl inocula spots could dry and the plates were then inverted and incubated overnight at 37° C. before enumerating the bacterial colonies at the labelled dilutions to determine the effects of the actives on bacterial growth. Calculation of Results Mean bacterial survival numbers NMBS (expressed in Log CFU/ml) are obtained by first determining the segment of the TSA plate where the number of bacterial colonies is countable.

[2] = test system: Escherichia coli (E. coli—ATCC #10536); experiment: Automated assessment of efficacy in surfactant base (2.85% sodium cocoyl glycinate and 1.85% sodium lauroamphoacetate, pH 10.0), 15 seconds exposure; settings: for Δ OD 450 nm = OD450 (time = 16 hours) − OD450 (time zero), Mean / Δ OD 590 nm OD590 (time = 16 hours) − OD590 (time zero), Mean / No. of replicates showing growth (out of 4): alone, model surfactant solution; for MBC (minimum biocidal concentration): in 2.85% sodium cocoyl glycinate + 1.85% sodium lauroamphoacetate solution at pH 10, E. coli
Description: Test Methodology for Automated Assessment of Efficacy in Surfactant Base Microbiocidal Activity of Actives as Per the Invention in a Model Surfactant Medium Test Methodology for Automated Assessment of Efficacy in Surfactant Base In these examples, the efficacy of combinations of actives were tested in a surfactant cleansing formulation comprising 2.85% sodium cocoyl glycinate and 1.85% sodium lauroamphoacetate. This corresponds to a 50% in use dilution with water of a neat formulation containing 5.7% cocoyl glycinate and […] % sodium, lauroamphoacetate during hand washing. Solutions were prepared such that the concentrations of the surfactant components and test actives were 1.1× the final desired concentration in order to allow for dilution with the bacterial inoculum in the test. The solutions were manually adjusted to pH 10.0 by dropwise addition of sodium hydroxide solution, as measured with a pH meter at ambient temperature. The efficacy of the combinations of the present invention was determined against Escherichia coli (E. coli—ATCC #10536), at a concentration of approximately 1×10^8 bacteria per mL. Tests were conducted using standard microtiter plate assays using an automated liquid handling system. 270 μl of the surfactant test solution was pipetted into each well of the microtitre plate and 30 μl of the bacterial suspension was then added. Alter exactly 15 seconds of bacterial exposure, a 30 μl volume of bacterial cells was withdrawn and transferred to 270 μl of D/E quench solution. After 5 minutes in the D/E quench, the optical density (OD) was measured for each plate in turn at two specific wavelengths (450 nm and 590 nm). These provide a dual check of antimicrobial activity, as the OD450 reading is specific for the yellow colour of D/E quench when bacterial growth is observed, whereas OD590 is specific for the initial purple colour of the D/E quench which is retained if no bacterial growth is observed. After the time zero OD measurements, plates were then incubated at 37° C. overnight (16 hours) before repeating the OD measurements. Delta OD values were calculated by subtracting […]. Bacterial growth is observed as an increase in OD450 and a decrease in ΔOD590. To identify antibacterially efficacious systems (those preventing appreciable bacterial growth after incubation), the following threshold changes in OD readings have been adopted: if (1). OD450 increases by less than 0.2 absorbance unit on incubation and (2). OD590 decreases by less than 0.35 unit on incubation. Conversely, where OD450 increases by more than 0.2 AU and OD590 decreases by more than 0.35 unit after incubation, corresponding to a colour shift from purple to yellow, the test system allows bacterial growth and is not deemed efficacious. Four replicate measurements in the same plate have been made for each test system. The number of replicate wells showing either bacterial growth or no growth is also readily assessed by eye by following the colour change. Dose responses for individual components and binary mixtures of actives at a fixed concentration ratio were generated by sequential dilution of liquors with further surfactant solution to obtain a series of endpoints. […] In some selected cases, the combinations were also tested at the weight ratio 1:1.

[3] = test system: Escherichia coli (E. coli—ATCC #10536); experiment: Synergy test: high resolution MBC microtiter plate assay, phosphate buffer containing 35% dipropylene glycol, 15 seconds contact; settings: E. coli 10536; for SI (Synergy Index): at Qa and Qb, less than one = synergy; for MBC of the component acting alone (QA / QB; Qa or Qb where the other component is 0): complete kill in 15 seconds
Text: The concentrations and ratios may also vary under different test conditions or with different test methods.
One measure of synergy is the industrially accepted method described by Kull, F. C.; Eisman, P. C.; Sylwestrowicz, H. D, and Mayer, R. L., in Applied Microbiology 9:538-541 (1961), using the ratio determined by the formula: […]=Synergy Index (“SI”) wherein; QA=concentration of compound A (first component) in percent, acting alone, which produced an end point (MBC of Compound A). Qa=concentration of compound A in percent, in the mixture, which produced an end point. QB=concentration of compound B (second component) in percent, acting alone, which, produced an end point (MBC of Compound B). Qb=concentration of compound B in percent, in the mixture, which produced an end point.
When the sum of Qa/QA and Qb/QB is greater than one, antagonism is indicated. […] The lower the SI, the greater is the synergy shown by that particular mixture. The minimum biocidal concentration (MBC) of a microbicide is the lowest concentration tested under a specific set of conditions that provides complete kill of the tested microorganisms.
Synergy tests were conducted using standard microliter plate assays with phosphate buffer containing 35% dipropylene glycol (DPG). In this method, a wide range of combinations of chemicals was tested by conducting high resolution MBC assays of Component (A) in the presence of various concentrations of Component (B). High resolution MBCs were determined by adding varying amounts of microbicide to one column of a microliter plate and doing subsequent […] dilutions using an automated liquid handling, system to obtain a series of closely spaced endpoints. The MBC plate was inoculated one column at a time with the test microorganism. An aliquot of the inoculated well was transferred at 15 seconds to a plate containing a neutralizing agent (D/E Neutralizing Broth), mixed and held for 5 minutes before being transferred to a growth plate containing trypticase soy broth (TSB). The TSB plate was incubated at 37° C. and read for the presence/absence of growth at 24 hours. The lowest level tested that provided complete kill (as evidenced by no growth in the microtitre plate) of the test organisms in 15 seconds is the minimum biocidal concentration (MBC).
The synergy of the combinations of the present invention was determined against a bacterium, Escherichia coli (E. coli—ATCC #10536), at a concentration of approximately 1×10^8 it bacteria per mL. This microorganism is representative of natural contaminants in many consumer and industrial applications.

[4] = Table 28, E. coli, component alone

CC1=CC[C@@H](CO)[C@H](C)C1 (relative stereo) [floralol, Trans-4,6-dimethyl-3-Cyclohexene-1-methanol]
MBC (minimum biocidal concentration of antimicrobial components) ([1]; component alone): 0.3 % w/v | Antimicrobial alcohol MBC [1, 4]: 0.3 % (w/v) | Δ OD 450 nm = OD450 (time = 16 hours) − OD450 (time zero), Mean ([2]; 0.2% w/v): −1.43 | Δ OD 590 nm OD590 (time = 16 hours) − OD590 (time zero), Mean ([2]; 0.2% w/v): 0.35 | Δ OD 450 nm = OD450 (time = 16 hours) − OD450 (time zero), Mean ([2]; 0.3% w/v): −1.20 | Δ OD 590 nm OD590 (time = 16 hours) − OD590 (time zero), Mean ([2]; 0.3% w/v): 0.55 | No. of replicates showing growth (out of 4) ([2]; 0.5% w/v): 0 | Δ OD 450 nm = OD450 (time = 16 hours) − OD450 (time zero), Mean ([2]; 0.5% w/v): −0.06 | Δ OD 590 nm OD590 (time = 16 hours) − OD590 (time zero), Mean ([2]; 0.5% w/v): 0.09 | Δ OD 450 nm = OD450 (time = 16 hours) − OD450 (time zero), Mean ([2]; […] w/v): −0.29 | Δ OD 590 nm OD590 (time = 16 hours) − OD590 (time zero), Mean ([2]; […] w/v): 0.23 | MBC (minimum biocidal concentration) [2]: 0.4 % w/v

Oc1ccc(Cc2ccccc2)cc1 [4-benzylphenol, 4-benzyl phenol]
NMBS ([1]; 0.0125% 4-benzylphenol, E. coli): 7.75 log CFU/ml | NMBS ([1]; 0.05% 4-benzylphenol, E. coli): 0.00 log CFU/ml | MBC (minimum biocidal concentration of antimicrobial components) ([1]; component alone): 0.05 % w/v | Phenolic compound MBC [1, 4]: 0.5 % (w/v) | NMBS ([1]; […] 4-benzylphenol, E. coli): 4.20 log CFU/ml

Oc1ccc2c(c1)CCCC2 [5,6,7,8-tetrahydronaphthalen-2-ol]
SI (Synergy Index) [3]: 1.00 | MBC of the component acting alone (QA / QB; Qa or Qb where the other component is 0) [3]: 0.8 weight % and 0.6 weight % | No. of replicates showing growth (out of 4) ([2]; 0.1% w/v): 4 | Δ OD 450 nm = OD450 (time = 16 hours) − OD450 (time zero), Mean ([2]; 0.1% w/v): −1.56 | Δ OD 590 nm OD590 (time = 16 hours) − OD590 (time zero), Mean ([2]; 0.1% w/v): 0.32 | No. of replicates showing growth (out of 4) ([2]; 0.2% w/v): 4 | Δ OD 450 nm = OD450 (time = 16 hours) − OD450 (time zero), Mean ([2]; 0.2% w/v): −1.55 | Δ OD 590 nm OD590 (time = 16 hours) − OD590 (time zero), Mean ([2]; 0.2% w/v): 0.36 | No. of replicates showing growth (out of 4) ([2]; […] w/v): 4 | Δ OD 450 nm = OD450 (time = 16 hours) − OD450 (time zero), Mean ([2]; […] w/v): −1.60 | Δ OD 590 nm OD590 (time = 16 hours) − OD590 (time zero), Mean ([2]; […] w/v): 0.31

C=C(C)[C@@H]1CC=C(CO)CC1 [(4S)-(4-(prop-1-en-2-yl)cyclohex-1-enyl)methanol]
SI (Synergy Index) [3]: 1.00 | MBC of the component acting alone (QA / QB; Qa or Qb where the other component is 0) [3]: 0.5 weight % and 0.3 weight % and 0.6 weight % | MBC (minimum biocidal concentration) [2]: 0.4 % w/v

CC1CCC(CO)C(C)C1 (centres unmarked) [dihydrofloralol, 2,4-Dimethylcyclohexylmethanol]
MBC (minimum biocidal concentration of antimicrobial components) ([1]; component alone): 0.5 % w/v | Antimicrobial alcohol MBC [1, 4]: 0.5 % (w/v) | Δ OD 450 nm = OD450 (time = 16 hours) − OD450 (time zero), Mean ([2]; 0.2% w/v): −1.39 | Δ OD 590 nm OD590 (time = 16 hours) − OD590 (time zero), Mean ([2]; 0.2% w/v): 0.41 | No. of replicates showing growth (out of 4) ([2]; 0.3% w/v): 4 | Δ OD 450 nm = OD450 (time = 16 hours) − OD450 (time zero), Mean ([2]; 0.3% w/v): −1.15 | Δ OD 590 nm OD590 (time = 16 hours) − OD590 (time zero), Mean ([2]; 0.3% w/v): 0.60 | No. of replicates showing growth (out of 4) ([2]; 0.5% w/v): 0 | Δ OD 450 nm = OD450 (time = 16 hours) − OD450 (time zero), Mean ([2]; 0.5% w/v): −0.06 | Δ OD 590 nm OD590 (time = 16 hours) − OD590 (time zero), Mean ([2]; 0.5% w/v): 0.10 | Δ OD 450 nm = OD450 (time = 16 hours) − OD450 (time zero), Mean ([2]; […] w/v): −0.28 | Δ OD 590 nm OD590 (time = 16 hours) − OD590 (time zero), Mean ([2]; […] w/v): 0.28 | MBC (minimum biocidal concentration) [2]: 0.4 % w/v
